{
  "source": "patent US20070190188A1",
  "about": "“Controlling Toxicity of Aminoquinoline Compounds” (The University of Mississippi, priority 2005, published 2007)",
  "key": {"CYP 2C19": {"target": "T1, CYP 2C19 (Homo sapiens, UniProt P33261)", "T1 construct": "purchased; host or cells: insect cells infected with recombinant baculovirus", "T1 sequence (P33261 whole entry)": "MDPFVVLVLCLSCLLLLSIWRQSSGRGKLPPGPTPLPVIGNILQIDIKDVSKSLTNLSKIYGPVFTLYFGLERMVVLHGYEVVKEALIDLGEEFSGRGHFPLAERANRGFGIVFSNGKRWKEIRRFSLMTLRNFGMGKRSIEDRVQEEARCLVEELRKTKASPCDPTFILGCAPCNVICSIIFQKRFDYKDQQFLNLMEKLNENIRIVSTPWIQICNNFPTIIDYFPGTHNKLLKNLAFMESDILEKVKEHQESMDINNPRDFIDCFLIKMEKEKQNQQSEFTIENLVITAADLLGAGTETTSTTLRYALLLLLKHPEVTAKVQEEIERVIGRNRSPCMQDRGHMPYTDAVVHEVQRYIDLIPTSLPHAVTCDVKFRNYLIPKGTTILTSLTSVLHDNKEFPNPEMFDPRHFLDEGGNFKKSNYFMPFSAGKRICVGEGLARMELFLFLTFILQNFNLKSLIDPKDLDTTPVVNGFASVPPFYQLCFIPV", "assay": "Methemoglobinemic metabolite formation with Baculosomes, CYP 2C19", "type": "cell-based", "conditions": "mean ± S.D. of four", "protocol": "This method uses simultaneous incubation of a test compound with the hepatic microsomes or Baculosomes® (microsomes prepared from insect cells infected with recombinant baculovirus containing a cDNA insert for a specific human P450 isozyme and NADPH-P450 reductase) and human erythrocytes followed by determination of methemoglobin formation. This allows the unstable metabolites generated in situ to react with the human erythrocytes."}, "Plasmodium berghei": {"tested_on": "Plasmodium berghei", "assay": "In vivo antimalarial evaluation in Plasmodium berghei-mouse malaria model", "excerpt": "One concern with this method of controlling 8-aminoquinoline toxicity is that the inhibition metabolism of the drug may impair its antiparasitic efficacy. […] Thus treatment of the individuals with NPC1161B along with an inhibitor of CYP3A4 should not compromise the therapeutic efficiency of NPC1161B."}, "Mouse Liver Microsomes": {"tested_on": "Mouse Liver Microsomes", "assay": "In vitro formation of methemoglobinemic metabolites with mouse liver microsomes and human erythrocytes", "type": "cell-based", "protocol": "(§1) In one aspect of the present invention, an in vitro assay is developed for evaluation of biotransformation reactions leading to generation of methemoglobinemic metabolites of 8-aminoquinolines. This method uses simultaneous incubation of a test compound with the hepatic microsomes or Baculosomes® (microsomes prepared from insect cells infected with recombinant baculovirus containing a cDNA insert for a specific human P450 isozyme and NADPH-P450 reductase) and human erythrocytes followed by determination of methemoglobin formation. This allows the unstable metabolites generated in situ to react with the human erythrocytes."}, "CYP 2C8": {"target": "T2, CYP 2C8 (Homo sapiens, UniProt P10632)", "T2 construct": "purchased; host or cells: insect cells infected with recombinant baculovirus", "T2 sequence (P10632 1-490)": "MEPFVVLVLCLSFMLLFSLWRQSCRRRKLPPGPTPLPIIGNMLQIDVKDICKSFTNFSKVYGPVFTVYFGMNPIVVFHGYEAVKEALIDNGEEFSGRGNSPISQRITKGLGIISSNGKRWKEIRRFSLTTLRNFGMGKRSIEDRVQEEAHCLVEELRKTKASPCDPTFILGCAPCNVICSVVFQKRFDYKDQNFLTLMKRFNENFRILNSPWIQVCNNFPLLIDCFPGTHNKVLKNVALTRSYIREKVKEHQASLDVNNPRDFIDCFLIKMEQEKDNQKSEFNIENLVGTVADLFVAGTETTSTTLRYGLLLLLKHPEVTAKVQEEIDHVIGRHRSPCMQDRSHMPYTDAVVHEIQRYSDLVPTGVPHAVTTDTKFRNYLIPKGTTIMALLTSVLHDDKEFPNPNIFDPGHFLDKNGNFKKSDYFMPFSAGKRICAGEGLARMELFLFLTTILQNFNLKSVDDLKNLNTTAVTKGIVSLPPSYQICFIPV", "assay": "Methemoglobinemic metabolite formation with Baculosomes, CYP 2C8", "type": "cell-based", "conditions": "mean ± S.D. of four", "protocol": "as §1"}},
  "data": [
    {"smiles": "COc1cc(N[C@H](C)CCCN)c2nccc(C)c2c1Oc1ccc(Cl)c(Cl)c1", "note": "[NPC1161B]", "values": [
      {"measurement": "% methemoglobin formed, CYP 2C19", "setting": "CYP 2C19", "value": "3.870 ± 0.577", "unit": "%"},
      {"measurement": "deaths", "setting": "Plasmodium berghei; NPC 1161B 0.312 mg/kg × 3 oral +TAO (i.p.)", "value": "nil"},
      {"measurement": "(%) Parasitemia", "setting": "Plasmodium berghei; NPC 1161B 0.312 mg/kg × 3 oral +TAO (i.p.), day 10 p.i., individual mice", "value": "0/0/0/0/0"},
      {"measurement": "(%) Parasitemia", "setting": "Plasmodium berghei; NPC 1161B 0.312 mg/kg × 3 oral +TAO (i.p.), day 14 p.i., mean in brackets", "value": "2.83/2.04/+/5.29/0 (2.0) %"},
      {"measurement": "(%) Parasitemia", "setting": "Plasmodium berghei; NPC 1161B 0.312 mg/kg × 3 oral +TAO (i.p.), day 21 p.i., mean in brackets", "value": "23.8/32.4/0/28.3/0 (16.9) %"},
      {"measurement": "deaths", "setting": "Plasmodium berghei; NPC 1161B 0.312 mg/kg × 3 oral, Alone", "value": "nil"},
      {"measurement": "(%) Parasitemia", "setting": "Plasmodium berghei; NPC 1161B 0.312 mg/kg × 3 oral, Alone, day 14 p.i., mean in brackets", "value": "0/5.8/0.66/0.8/1.36 (2.9) %"},
      {"measurement": "(%) Parasitemia", "setting": "Plasmodium berghei; NPC 1161B 0.312 mg/kg × 3 oral, Alone, day 21 p.i., mean in brackets", "value": "11.3/53.3/19.4/6.0/17.8 (21.5) %"},
      {"measurement": "deaths", "setting": "Plasmodium berghei; NPC 1161B 0.625 mg/kg × 3 oral +TAO (i.p.)", "value": "nil"},
      {"measurement": "(%) Parasitemia", "setting": "Plasmodium berghei; NPC 1161B 0.625 mg/kg × 3 oral +TAO (i.p.), day 10 p.i., individual mice", "value": "0/0/0/0/0"},
      {"measurement": "(%) Parasitemia", "setting": "Plasmodium berghei; NPC 1161B 0.625 mg/kg × 3 oral +TAO (i.p.), day 21 p.i., mean in brackets", "value": "8.4/0/10.4/18.4/1.5 (7.7) %"},
      {"measurement": "deaths", "setting": "Plasmodium berghei; NPC 1161B 0.625 mg/kg × 3 oral, Alone", "value": "nil"},
      {"measurement": "(%) Parasitemia", "setting": "Plasmodium berghei; NPC 1161B 0.625 mg/kg × 3 oral, Alone, day 7 p.i., individual mice", "value": "0/0/0/0/0"},
      {"measurement": "(%) Parasitemia", "setting": "Plasmodium berghei; NPC 1161B 0.625 mg/kg × 3 oral, Alone, day 21 p.i., mean in brackets", "value": "0/+/5.2/2.6/3.7 (2.3) %"},
      {"measurement": "deaths", "setting": "Plasmodium berghei; NPC 1161B 1.25 mg/kg × 3 oral +TAO (i.p.)", "value": "nil"},
      {"measurement": "(%) Parasitemia", "setting": "Plasmodium berghei; NPC 1161B 1.25 mg/kg × 3 oral +TAO (i.p.), day 7 p.i., individual mice", "value": "0/0/0/0/0"},
      {"measurement": "(%) Parasitemia", "setting": "Plasmodium berghei; NPC 1161B 1.25 mg/kg × 3 oral +TAO (i.p.), day 10 p.i., individual mice", "value": "0/0/0/0/0"},
      {"measurement": "(%) Parasitemia", "setting": "Plasmodium berghei; NPC 1161B 1.25 mg/kg × 3 oral +TAO (i.p.), day 14 p.i., individual mice", "value": "0/0/0/0/0"},
      {"measurement": "(%) Parasitemia", "setting": "Plasmodium berghei; NPC 1161B 1.25 mg/kg × 3 oral +TAO (i.p.), day 21 p.i., individual mice", "value": "0/0/0/0/0"},
      {"measurement": "(%) Parasitemia", "setting": "Plasmodium berghei; NPC 1161B 1.25 mg/kg × 3 oral +TAO (i.p.), day 28 p.i., individual mice", "value": "0/0/0/0/0"},
      {"measurement": "deaths", "setting": "Plasmodium berghei; NPC 1161B 1.25 mg/kg × 3 oral, Alone", "value": "nil"},
      {"measurement": "(%) Parasitemia", "setting": "Plasmodium berghei; NPC 1161B 1.25 mg/kg × 3 oral, Alone, day 7 p.i., individual mice", "value": "0/0/0/0/0"},
      {"measurement": "(%) Parasitemia", "setting": "Plasmodium berghei; NPC 1161B 1.25 mg/kg × 3 oral, Alone, day 10 p.i., individual mice", "value": "0/0/0/0/0"},
      {"measurement": "(%) Parasitemia", "setting": "Plasmodium berghei; NPC 1161B 1.25 mg/kg × 3 oral, Alone, day 14 p.i., individual mice", "value": "0/0/0/0/0"},
      {"measurement": "(%) Parasitemia", "setting": "Plasmodium berghei; NPC 1161B 1.25 mg/kg × 3 oral, Alone, day 21 p.i., individual mice", "value": "0/0/0/0/0"},
      {"measurement": "(%) Parasitemia", "setting": "Plasmodium berghei; NPC 1161B 1.25 mg/kg × 3 oral, Alone, day 28 p.i., individual mice", "value": "0/0/0/0/0"},
      {"measurement": "deaths", "setting": "Plasmodium berghei; NPC 1161B 2.5 mg/kg × 3 oral +TAO (i.p.)", "value": "nil"},
      {"measurement": "(%) Parasitemia", "setting": "Plasmodium berghei; NPC 1161B 2.5 mg/kg × 3 oral +TAO (i.p.), day 7 p.i., individual mice", "value": "0/0/0/0/0"},
      {"measurement": "(%) Parasitemia", "setting": "Plasmodium berghei; NPC 1161B 2.5 mg/kg × 3 oral +TAO (i.p.), day 10 p.i., individual mice", "value": "0/0/0/0/0"},
      {"measurement": "(%) Parasitemia", "setting": "Plasmodium berghei; NPC 1161B 2.5 mg/kg × 3 oral +TAO (i.p.), day 14 p.i., individual mice", "value": "0/0/0/0/0"},
      {"measurement": "(%) Parasitemia", "setting": "Plasmodium berghei; NPC 1161B 2.5 mg/kg × 3 oral +TAO (i.p.), day 21 p.i., individual mice", "value": "0/0/0/0/0"},
      {"measurement": "(%) Parasitemia", "setting": "Plasmodium berghei; NPC 1161B 2.5 mg/kg × 3 oral +TAO (i.p.), day 28 p.i., individual mice", "value": "0/0/0/0/0"},
      {"measurement": "deaths", "setting": "Plasmodium berghei; NPC 1161B 2.5 mg/kg × 3 oral, Alone", "value": "nil"},
      {"measurement": "(%) Parasitemia", "setting": "Plasmodium berghei; NPC 1161B 2.5 mg/kg × 3 oral, Alone, day 7 p.i., individual mice", "value": "0/0/0/0/0"},
      {"measurement": "(%) Parasitemia", "setting": "Plasmodium berghei; NPC 1161B 2.5 mg/kg × 3 oral, Alone, day 10 p.i., individual mice", "value": "0/0/0/0/0"},
      {"measurement": "(%) Parasitemia", "setting": "Plasmodium berghei; NPC 1161B 2.5 mg/kg × 3 oral, Alone, day 14 p.i., individual mice", "value": "0/0/0/0/0"},
      {"measurement": "(%) Parasitemia", "setting": "Plasmodium berghei; NPC 1161B 2.5 mg/kg × 3 oral, Alone, day 21 p.i., individual mice", "value": "0/0/0/0/0"},
      {"measurement": "(%) Parasitemia", "setting": "Plasmodium berghei; NPC 1161B 2.5 mg/kg × 3 oral, Alone, day 28 p.i., individual mice", "value": "0/0/0/0/0"},
      {"measurement": "effect of troleandomycin on the antimalarial property of NPC1161B", "setting": "Plasmodium berghei; mice infected with Plasmodium berghei, Table 7", "value": "does not antagonize"},
      {"measurement": "formation of methemoglobenemic metabolites, Azithromycin", "setting": "Mouse Liver Microsomes; Mouse Liver Microsomes, 8-aminoquinoline with Azithromycin", "value": "9.993 ± 1.306"},
      {"measurement": "formation of methemoglobenemic metabolites, Erythromycin", "setting": "Mouse Liver Microsomes; Mouse Liver Microsomes, 8-aminoquinoline with Erythromycin", "value": "3.133 ± 0.963"},
      {"measurement": "formation of methemoglobenemic metabolites, Microsomes", "setting": "Mouse Liver Microsomes; Mouse Liver Microsomes, no macrolide", "value": "11.24 ± 3.612"},
      {"measurement": "% methemoglobin formation, Mouse Liver Microsomes", "setting": "Mouse Liver Microsomes; drug 100 μM, microsomes equivalent to 25 pmoles cytochrome P450, Mean ± S.D. of four", "value": "11.240 ± 3.612", "unit": "%"},
      {"measurement": "% methemoglobin formed, CYP 2C8", "setting": "CYP 2C8", "value": "1.353 ± 0.791", "unit": "%"}
    ]}
  ]
}
